Source: paper PMC4080778, “Steroid conversion with CYP106A2 – production of pharmaceutically interesting DHEA metabolites” (Microbial Cell Factories, 2014)

Biological target: T1, CYP106A2 (Priestia megaterium, UniProt Q06069)
T1 sequence (Q06069 1-410): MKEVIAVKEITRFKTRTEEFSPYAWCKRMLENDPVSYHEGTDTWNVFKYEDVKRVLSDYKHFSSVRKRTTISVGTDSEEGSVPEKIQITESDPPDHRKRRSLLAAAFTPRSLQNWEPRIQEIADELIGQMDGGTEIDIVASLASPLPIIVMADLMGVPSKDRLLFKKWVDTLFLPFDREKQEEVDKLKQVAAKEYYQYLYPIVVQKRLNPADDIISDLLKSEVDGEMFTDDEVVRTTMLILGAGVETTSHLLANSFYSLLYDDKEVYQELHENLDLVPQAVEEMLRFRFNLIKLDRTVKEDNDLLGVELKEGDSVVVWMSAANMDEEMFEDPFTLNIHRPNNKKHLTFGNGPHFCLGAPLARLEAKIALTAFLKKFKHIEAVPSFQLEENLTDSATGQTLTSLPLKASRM
Experiment: UV-vis difference spectroscopy titration (type I high-spin shift, tandem cuvettes)
Format: binding

## C[C@]12CCC(=O)C=C1CC[C@@H]1[C@@H]2CC[C@]2(C)C(=O)CC[C@@H]12 [androstenedione]
  Kd: 92 ± 11 µM
